Target: Sigma non-opioid intracellular receptor 1 (Cavia porcellus)
Test: Tested in vitro for the concentration required to inhibit specific [3H]DTG radioligand binding to sigma receptor on guinea pig brain membrane

Compound	IC50
CCc1cccc(N=C(N)N(C)c2cccc3ccccc23)c1 [N'-(3-Ethyl-phenyl)-N-methyl-N-naphthalen-1-yl-guanidine]	1000 nM
CC(C)c1cccc(N=C(N)Nc2cccc(C(C)C)c2)c1	96 nM
CN(C(N)=Nc1cccc2ccccc12)c1cccc(N=[N+]=[N-])c1 [N-(3-Azido-phenyl)-N-methyl-N'-naphthalen-1-yl-guanidine]	3020 nM
CCc1cccc(N(CC)C(N)=Nc2cccc3ccccc23)c1 [N-Ethyl-N-(3-ethyl-phenyl)-N'-naphthalen-1-yl-guanidine]	2190 nM
CN(C(N)=Nc1cccc2ccccc12)c1cccc(N)c1 [N-(3-Amino-phenyl)-N-methyl-N'-naphthalen-1-yl-guanidine]	2700 nM
CN(C(N)=Nc1cccc(N)c1)c1cccc2ccccc12 [N'-(3-Amino-phenyl)-N-methyl-N-naphthalen-1-yl-guanidine]	13000 nM
CN(C(=N)N(c1ccccc1)c1cccc2ccccc12)c1cccc2ccccc12 [N-Methyl-N,N'-di-naphthalen-1-yl-N'-phenyl-guanidine]	11000 nM
NC(=Nc1cccc2ccccc12)Nc1cccc2ccccc12	165 nM
NC(=Nc1ccc2ccccc2c1)Nc1ccc2ccccc2c1 [N,N'-Di-naphthalen-2-yl-guanidine]	92 nM
NC(=Nc1cccc2ccccc12)N(c1ccccc1)c1cccc2ccccc12 [N,N'-Di-naphthalen-1-yl-N-phenyl-guanidine]	7930 nM
CC(C)c1ccccc1N=C(N)Nc1cccc2ccccc12 [N-(2-Isopropyl-phenyl)-N'-naphthalen-1-yl-guanidine]	91 nM
CN(C(=N)N(C)c1cccc2ccccc12)c1cccc2ccccc12 [N,N'-Dimethyl-N,N'-di-naphthalen-1-yl-guanidine]	10700 nM
NC(=Nc1cccc2c1CCC2)Nc1cccc2c1CCC2 [N,N'-Di-indan-4-yl-guanidine]	29 nM
NC(=Nc1ccc(Br)cc1)Nc1ccc(Br)cc1	33 nM
NC(=Nc1cccc2ccccc12)N1CCC(c2ccccc2)CC1 [N-Naphthalen-1-yl-4-phenyl-piperidine-1-carboxamidine]	343 nM
CN(C(N)=Nc1cccc2ccccc12)c1ccccc1 [N-Methyl-N'-naphthalen-1-yl-N-phenyl-guanidine]	2900 nM
Cc1cccc(NC(N)=Nc2cccc3ccccc23)c1 [N-Naphthalen-1-yl-N'-m-tolyl-guanidine]	75 nM
CCc1cccc(NC(N)=Nc2cccc3ccccc23)c1 [N-(3-Ethyl-phenyl)-N'-naphthalen-1-yl-guanidine]	54 nM
NC(=Nc1cccc2ccccc12)N1CCCCC1 [N-Naphthalen-1-yl-piperidine-1-carboxamidine]	1070 nM
CCc1cccc(N=C(N)Nc2cccc(CC)c2)c1	8 nM
CCc1cccc(N(C)C(=N)N(C)c2cccc3ccccc23)c1 [N-(3-Ethyl-phenyl)-N,N'-dimethyl-N'-naphthalen-1-yl-guanidine]	1210 nM

The remaining molecules from weak to strong by IC50, led by results:

IC50	Compound
7180 nM	N=C(N1CCc2ccccc21)N1CCc2ccccc21 [C-[Bis-(2,3-dihydro-indol-1-yl)]-methyleneamine]
6260 nM	CN(/C(N)=N/c1cccc2ccccc12)c1cccc([N+](=O)[O-])c1 [N-Methyl-N'-naphthalen-1-yl-N-(3-nitro-phenyl)-guanidine]
6130 nM	CCN(C(N)=Nc1cccc2ccccc12)c1cccc2ccccc12 [N-Ethyl-N,N'-di-naphthalen-1-yl-guanidine]
4800 nM	CN(C(N)=Nc1cccc2ccccc12)c1cccc2ccccc12 [N-Methyl-N,N'-di-naphthalen-1-yl-guanidine]
2640 nM	C/[N+](=C(/[NH-])Nc1cccc([N+](=O)[O-])c1)c1cccc2ccccc12 [N-Methyl-N-naphthalen-1-yl-N'-(3-nitro-phenyl)-guanidine]
1410 nM	NC(=Nc1cccc2ccccc12)N1CCCCCC1 [N-Naphthalen-1-yl-azepane-1-carboxamidine]
351 nM	COc1cccc(N=C(N)Nc2cccc(OC)c2)c1 [N,N'-Bis-(3-methoxy-phenyl)-guanidine]
247 nM	Cc1cccc(N=C(N)N(C)c2cccc(C)c2)c1 [N-Methyl-N,N'-di-m-tolyl-guanidine]
242 nM	CC(C)c1ccc(N=C(N)Nc2ccc(C(C)C)cc2)cc1
60 nM	CCc1cccc(N=C(N)N2CCC(c3ccccc3)CC2)c1 [N-(3-Ethyl-phenyl)-4-phenyl-piperidine-1-carboxamidine]
40 nM	NC(=Nc1cccc2ccccc12)Nc1ccccc1I [N-(2-Iodo-phenyl)-N'-naphthalen-1-yl-guanidine]

From BindingDB's records for doi:10.1021/jm00028a009 (Cambridge Neuroscience, 1994)
